Where a name gives a salt, the structure may show the parent alone. Read-outs that look alike come from different tables or passages of the source.
Assays:
Experiment in all cases: MIC by broth microdilution (CLSI)
Format in all cases: cell-based
[1] = tested on: E. faecalis ATCC 29212 (HAV#005); details: Enterococcus faecalis, ATCC29212, 24 h, read-out: MIC E. faecalis ATCC 29212
Experimental: (§1) Minimum inhibitory concentrations (MICs) were determined by the broth microdilution method following the Clinical and Laboratory Standards Institute (CLSI) guidelines. Test organisms consisted of standard reference strains from the American Type Culture Collection (ATCC; Manassa, VA, USA) and clinical isolates obtained from JMI Laboratories Inc. (North Liberty, IA, USA), Micromyx repository (MMX; Kalamazoo, MI, USA), and Massachusetts Eye and Ear Hospital (Boston, USA). Before the start of the MIC experiment, standard and test compound stock solutions were prepared in dimethyl sulfoxide (DMSO, Aldrich D2650) at a stock concentration of 2,560 μg/mL. The compound concentration range typically employed for each experiment was 64-0.06 μg/mL (2.5% final DMSO concentration). Iboxamycin was used as a comparator in all experiments. All bacterial strains were sub-cultured on blood agar plates (tryptic soy agar with 5% sheep blood, Hardy Diagnostics) and incubated overnight at 35° C. Organisms were suspended in cation-adjusted Mueller-Hinton broth (CaMHB, BD 212322) and optical density was adjusted to 0.5 McFarland standard. Suspensions were further diluted to obtain a final inoculum of 5×10^5 CFU/mL for broth microdilution experiments. The minimum concentration of compound required to inhibit visible bacterial growth after 24 h of incubation was recorded as the MIC in μg/mL. MICs for P. aeruginosa were recorded in cation-adjusted Mueller-Hinton broth which had been pre-treated with Chelex 100 ion exchange resin according to procedures reported in Ito et al. Antimicrob Agents Chemother (2016) 60 (12), 7396-7401.

E. coli lptD mutant = details: Escherichia coli, 24 h, read-out: MIC E. coli lptD mutant, lptD mutant / ΔlptD mutant; CaMHB, 24 h incubation
Experimental: as §1

K. pneumoniae JMI-991193 = details: Klebsiella pneumoniae, JMI991193, 24 h, read-out: MIC K. pneumoniae JMI-991193
Experimental: as §1

E. coli ΔtolC = details: Escherichia coli, 24 h, read-out: MIC E. coli ΔtolC, ΔtolC; CaMHB, 24 h incubation
Experimental: as §1

E. faecium JMI-990536 = details: Enterococcus faecium, JMI990536, 24 h, read-out: MIC E. faecium JMI-990536
Experimental: as §1

[2] = tested on: A. baumannii ATCC 19606 (HAV#010); details: Acinetobacter baumannii, ATCC19606, 24 h, read-out: MIC A. baumannii ATCC 19606
Experimental: as §1

S. aureus Clinical (cfr) = details: Staphylococcus aureus, 24 h, read-out: MIC S. aureus Clinical (cfr)
Experimental: as §1

[3] = tested on: E. coli ATCC 25922 (HAV#006); details: Escherichia coli, ATCC25922, 24 h, read-out: MIC E. coli ATCC 25922
Experimental: as §1

S. aureus MMX 3035 = details: Staphylococcus aureus, MMX3035, 24 h, read-out: MIC S. aureus MMX 3035
Experimental: as §1

[4] = tested on: S. aureus ATCC 29213 (HAV#001); details: Staphylococcus aureus, ATCC29213, 24 h, read-out: MIC S. aureus ATCC 29213
Experimental: as §1

[5] = HAV#005, ATCC 29212, CaMHB, 24 h incubation
[6] = JMI-991193, CaMHB, 24 h incubation
[7] = JMI-990536, CaMHB, 24 h incubation
[8] = HAV#010, ATCC 19606, CaMHB, 24 h incubation
[9] = Clinical (cfr), CaMHB, 24 h incubation
[10] = HAV#006, ATCC 25922, CaMHB, 24 h incubation
[11] = MMX 3035, CaMHB, 24 h incubation
[12] = HAV#001, ATCC 29213, CaMHB, 24 h incubation

Structure (SMILES) | MIC [1, 5] [µg/mL] | MIC (E. coli lptD mutant) [µg/mL] | MIC (K. pneumoniae JMI-991193; [6]) [µg/mL] | MIC (E. coli ΔtolC) [µg/mL] | MIC (E. faecium JMI-990536; [7]) [µg/mL] | MIC [2, 8] [µg/mL] | MIC (S. aureus Clinical (cfr); [9]) [µg/mL] | MIC [3, 10] [µg/mL] | MIC (S. aureus MMX 3035; [11]) [µg/mL] | MIC [4, 12] [µg/mL] | MIC (E. faecium JMI-990536) [µg/mL] | MIC [1] [µg/mL] | MIC (K. pneumoniae JMI-991193) [µg/mL] | MIC [2] [µg/mL] | MIC (S. aureus Clinical (cfr)) [µg/mL] | MIC [3] [µg/mL] | MIC (S. aureus MMX 3035) [µg/mL] | MIC [4] [µg/mL]
CC(C)C[C@@H]1CCO[C@@H]2[C@H](CN[C@@H]2C(=O)N[C@@H]2C/C=C\C[C@H](CN3CCOCC3)S[C@H]3O[C@H]2[C@H](O)[C@H](O)[C@H]3O)C1 [FSA1607020, (4S,5aS,8S,8aR)-4-isobutyl-N-((1R,3R,8R,9R,10R,11S,12R,Z)-10,11,12-trihydroxy-3-(morpholinomethyl)-13-oxa-2-thiabicyclo[7.3.1]tridec-5-en-8-yl) octahydro-2H-oxepino[2,3-c]pyrrole-8-carboxamide formate salt] | 4 | 1 | > 64 | 0.25 | 16 | 32 | 16 | 8 | 16 | 4 | – | – | – | – | – | – | – | –
CC(C)C[C@@H]1CCO[C@@H]2[C@H](CN[C@@H]2C(=O)N[C@@H]2C/C=C/[C@H](CO)CSC3O[C@H]2C(O)C(O)[C@H]3O)C1 (single isomer, unassigned) [FSA1608025B, formate salt] | 32 | > 64 | > 64 | > 64 | 32 | > 64 | > 64 | > 64 | > 64 | 32 | – | – | – | – | – | – | – | –
CC(C)C[C@@H]1CCO[C@@H]2[C@H](CN[C@@H]2C(=O)N[C@H]2[C@H]3O[C@H](SCCC/C=C\[C@H]2C)[C@H](O)[C@@H](O)[C@H]3O)C1 [FSA1609096, (4S,5aS,8S,8aR)-4-isobutyl-N-((1R,8R,9R,10R,11R,12S,13R,Z)-11,12,13-trihydroxy-8-methyl-14-oxa-2-thiabicyclo[8.3.1]tetradec-6-en-9-yl) octahydro-2H-oxepino[2,3-c]pyrrole-8-carboxamide formate salt] | ≤ 0.06 | 0.125 | 8 | 0.25 | – | 1 | 0.25 | 2 | 0.25 | ≤ 0.06 | 0.125 | – | – | – | – | – | – | –
CC(C)C[C@@H]1CCO[C@@H]2[C@H](CN[C@@H]2C(=O)N[C@@H]2C/C=C\C[C@@H](c3c[nH]nn3)S[C@H]3O[C@H]2[C@H](O)[C@H](O)[C@H]3O)C1 [FSA1607090, (4S,5aS,8S,8aR)-4-isobutyl-N-((1R,3S,8R,9R,10R,11S,12R,Z)-10,11,12-trihydroxy-3-(1H-1,2,3-triazol-4-yl)-13-oxa-2-thiabicyclo[7.3.1]tridec-5-en-8-yl) octahydro-2H-oxepino[2,3-c]pyrrole-8-carboxamide formate salt] | 32 | 8 | > 64 | 4 | 16 | > 64 | > 64 | > 64 | 32 | 8 | – | – | – | – | – | – | – | –
CC(C)C[C@@H]1CCO[C@@H]2[C@H](CN[C@@H]2C(=O)N[C@@H]2C/C=C\C[C@@H](C(F)F)S[C@H]3O[C@H]2[C@H](O)[C@H](O)[C@H]3O)C1 [FSA1607044, (4S,5aS,8S,8aR)—N-((1R,3S,8R,9R,10R,11S,12R,Z)-3-(difluoromethyl)-10,11,12-trihydroxy-13-oxa-2-thiabicyclo[7.3.1]tridec-5-en-8-yl)-4-isobutyloctahydro-2H-oxepino[2,3-c]pyrrole-8-carboxamide formate salt] | – | 2 | – | 0.5 | – | – | – | – | – | – | 1 | 0.125 | 16 | 8 | 16 | 8 | 2 | 0.125
CC(C)C[C@@H]1CCO[C@@H]2[C@H](CN[C@@H]2C(=O)N[C@@H]2C/C=C\C[C@@H](CN3CCCC3)S[C@H]3O[C@H]2[C@H](O)[C@H](O)[C@H]3O)C1 [FSA1606086, (4S,5aS,8S,8aR)-4-isobutyl-N-((1R,3S,8R,9R,10R,11S,12R,Z)-10,11,12-trihydroxy-3-(pyrrolidin-1-ylmethyl)-13-oxa-2-thiabicyclo[7.3.1]tridec-5-en-8-yl) octahydro-2H-oxepino[2,3-c]pyrrole-8-carboxamide formate salt] | 16 | 4 | > 64 | 2 | 16 | > 64 | > 64 | 64 | 64 | 16 | – | – | – | – | – | – | – | –
CC(C)C[C@@H]1CCO[C@@H]2[C@H](CN[C@@H]2C(=O)N[C@@H]2C/C=C\C[C@@H](CN3CCOCC3)S[C@H]3O[C@H]2[C@H](O)[C@H](O)[C@H]3O)C1 [FSA1607019, (4S,5aS,8S,8aR)-4-isobutyl-N-((1R,3S,8R,9R,10R,11S,12R,Z)-10,11,12-trihydroxy-3-(morpholinomethyl)-13-oxa-2-thiabicyclo[7.3.1]tridec-5-en-8-yl) octahydro-2H-oxepino[2,3-c]pyrrole-8-carboxamide formate salt] | 2 | 0.5 | > 64 | 0.25 | 4 | 32 | 16 | 4 | 8 | 4 | – | – | – | – | – | – | – | –
CC(C)C[C@@H]1CCO[C@@H]2[C@H](CN[C@@H]2C(=O)N[C@@H]2C/C=C\C[C@@H](F)CS[C@H]3O[C@H]2[C@H](O)[C@H](O)[C@H]3O)C1 [FSA1607022, (4S,5aS,8S,8aR)—N-((1R,4R,9R,10R,11R,12S,13R,Z)-4-fluoro-11,12,13-trihydroxy-14-oxa-2-thiabicyclo[8.3.1]tetradec-6-en-9-yl)-4-isobutyloctahydro-2H-oxepino[2,3-c]pyrrole-8-carboxamide formate salt] | – | 0.25 | – | 0.25 | – | – | – | – | – | – | 1 | ≤ 0.06 | 8 | 2 | 4 | 2 | 4 | ≤ 0.06
CC(C)C[C@@H]1CCO[C@@H]2[C@H](CN[C@@H]2C(=O)N[C@H]2[C@H]3O[C@H](S[C@H](c4cn(-c5cc(F)c(F)cc5F)nn4)C/C=C\[C@H]2C)[C@H](O)[C@@H](O)[C@H]3O)C1 [FSA1609051, (4S,5aS,8S,8aR)-4-isobutyl-N-((1R,3S,7R,8R,9R,10R,11S,12R,Z)-10,11,12-trihydroxy-7-methyl-3-(1-(2,4,5-trifluorophenyl)-1H-1,2,3-triazol-4-yl)-13-oxa-2-thiabicyclo[7.3.1]tridec-5-en-8-yl) octahydro-2H-oxepino[2,3-c]pyrrole-8-carboxamide formate salt] | 0.25 | 0.5 | 8 | 0.25 | 0.5 | 2 | 0.5 | 4 | 0.5 | 0.25 | – | – | – | – | – | – | – | –
